From publication PMC4667271, “Discovery of a Novel Inhibitor of the Protein Tyrosine Phosphatase Shp2” (Scientific Reports, 2015) come the findings set out here.

Experiment [1] deals with T1, Shp2 PTP domain (Homo sapiens, UniProt Q06124).
T1 sequence (Q06124 247-517 limits assumed): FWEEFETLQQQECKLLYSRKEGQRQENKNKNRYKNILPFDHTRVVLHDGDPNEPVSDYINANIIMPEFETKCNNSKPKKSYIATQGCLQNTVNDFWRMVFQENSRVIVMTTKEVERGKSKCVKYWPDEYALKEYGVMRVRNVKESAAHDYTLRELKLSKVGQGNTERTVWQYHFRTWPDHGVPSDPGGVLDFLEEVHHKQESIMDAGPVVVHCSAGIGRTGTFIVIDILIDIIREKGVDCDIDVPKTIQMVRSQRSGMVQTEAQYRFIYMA
As to the kind of experiment: in vitro PTP assay (pNPP), Shp2 PTP domain. The format is biochemical. The note with it: Shp2 PTP domain; pNPP; mean ± S.E.M., triplicate; read-out: IC50. The method, then: (§1) Plasmids for expression of His-tag fusion proteins of human PTP were constructed in PET-28a by PCR subcloning techniques. The constructions contain only the PTP domain except Full-length Shp2. Full-length Shp2 containing Tyr279-to-Ala mutant was generated by PCR-based mutagenesis. All constructs were verified by DNA sequencing. PTP-His fusion proteins were expressed in Escherichia coli BL21 and lysed in the buffer (50 mM NaH2PO4, 300 mM NaCl, 250 mM imidazole, 1 mM dithiothreitol plus 5% glycerol), purified with Ni-NTA Magnetic Agarose Beads (Qiagen). The His-tag recombinant purification protocol was carried out according to the purification under native conditions of the QIAexpress System.
(§2) The assay was set in wells of 96-well plate with a final volume of 100 μl of reaction mixture containing 10 mM of NaAc-HAc, 1 mM of ethylene diamine tetraacetic acid, 1 mM of DL-dithiothreitol and 2% of dimethyl sulfoxide, pH 5.5. Activity of the enzyme was assayed by incubating recombinant PTP protein or mutant PTP with various concentrations of Fumos in the mixture at 37 °C for 30 min. Absorbance at 405 nm was detected immediately after addition of varied concentrations of substrate, p-nitrophenyl phosphate (pNPP) to each corresponding well.

Experiment [2] concerns the target T2, full-length Shp2 (Shp2 FL) (Homo sapiens, UniProt Q06124).
T2 sequence (Q06124 1-593): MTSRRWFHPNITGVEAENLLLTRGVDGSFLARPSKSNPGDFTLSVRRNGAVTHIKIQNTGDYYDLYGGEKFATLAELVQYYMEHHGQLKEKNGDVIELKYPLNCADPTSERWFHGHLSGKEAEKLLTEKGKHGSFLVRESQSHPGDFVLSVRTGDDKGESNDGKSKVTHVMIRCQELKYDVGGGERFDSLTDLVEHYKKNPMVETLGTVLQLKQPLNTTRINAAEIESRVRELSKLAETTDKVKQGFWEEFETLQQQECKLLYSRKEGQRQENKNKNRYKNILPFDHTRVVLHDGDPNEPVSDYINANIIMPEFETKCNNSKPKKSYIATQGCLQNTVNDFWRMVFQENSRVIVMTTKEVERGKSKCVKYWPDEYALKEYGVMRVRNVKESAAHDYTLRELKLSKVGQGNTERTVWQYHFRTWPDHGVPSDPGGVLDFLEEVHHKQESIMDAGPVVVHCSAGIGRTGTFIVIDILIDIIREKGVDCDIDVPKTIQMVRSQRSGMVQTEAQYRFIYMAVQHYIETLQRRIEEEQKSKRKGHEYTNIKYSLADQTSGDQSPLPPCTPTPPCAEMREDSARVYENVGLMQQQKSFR
In words: in vitro PTP assay (pNPP), full-length Shp2. The format is biochemical. The note with it: full-length Shp2 (Shp2 FL). The method, then:
as §1, §2

Experiment [3] deals with ERK1/2 activation in HEK293T cells expressing H-RasV12. In words: RasV12-induced ERK1/2 activation in transfected HEK293T. The format is cell-based, human. The note with it: Fumos 20 μM or U0126 10 μM, 24 h. The protocol: DMSO treatment as control. […] (c) Fumos inhibits EGF-induced Ras activation.
HEK293T, MDA-MB-231and HeLa cell lines were obtained from CRC/PUMC. Cell lines were maintained in Dulbecco’s modified Eagle’s medium supplemented with 10% fetal bovine serum. Transfections were performed in 6-well plates according to manufacturer (Invitrogen Lipofectamine LTX).Briefly, for transient transfection of HEK293T cells, subconfluent cells in 6-well plates were incubated with 2 ml of Dulbecco’s modified Eagle’s medium containing 2.5 μg of total DNA and 7.5 μl of each Lipofectamine and Plus reagent (Invitrogen) and then serum-starved in DMEM/0.1% bovine serum albumin for 18 h. After Fumos treatment for 24 h, cells were stimulated for 5 min with 20 ng/ml EGF.
After centrifugation, the supernatant was collected.

SMILES strings stand for the structures.

In general, IC50 refers to the concentration at which inhibition is half-maximal. With `[Na+].[Na+].[Na+].[O]=[V]([O-])([O-])[O-]` [sodium orthovanadate, reference compound], the figures for the IC50 in experiment [1] and in experiment [2] were 620 µM and 630 µM, respectively.

Take `N#CC(=C(/N)Sc1ccccc1N)/C(C#N)=C(/N)Sc1ccccc1N` [U0126, reference compound]: the “RasV12-induced ERK1/2 activation” value in experiment [3] is reported as “blocked ERK1/2 phosphorylation”.
